Like-named read-outs stand apart in the source and are kept apart here. *1 amine or outer side, *2 acyl side, *3 side chain or, on linkers, in order; H or OH if unused. Where a SMILES comes first, the peptide text is derived from it. [ ]: non-standard residue; d: D form. The star is where a group is joined. Phenylsulfonyl(4-anisamido) = COc1ccc(C(=O)Nc2ccc(S(=O)(=O)*)cc2)cc1; Benzoyl(4-(4-EtNHCO-PhO)) = CCNC(=O)c1ccc(Oc2ccc(C(=O)*)cc2)cc1; Benzoyl(4-O-C6H4-4-CONHMe) = CNC(=O)c1ccc(Oc2ccc(C(=O)*)cc2)cc1; X19 = O=C(O)CNC(=O)c1ccc(Oc2ccc(C(=O)*)cc2)cc1; X2 = CCOc1ccc(C(=O)Nc2ccc(S(=O)(=O)*)cc2)cc1; Benzoyl(4-OPh) = O=C(c1ccc(Oc2ccccc2)cc1)*; d(γGlu) = O=C(O)[C@@H](CCC(=O)[*:2])N[*:1]; d(βAsp) = O=C(O)[C@@H](CC(=O)[*:2])N[*:1]; NMeW = CN[C@@H](Cc1c[nH]c2ccccc12)C(=O)O; X7 = O=S(=O)(c1ccc(-c2ccc(OCCO)cc2)cc1)*; X5 = O=S(=O)(c1ccc(-c2ccc(CO)cc2)cc1)*; NMeI = CC[C@H](C)[C@H](NC)C(=O)O; NMeE = CN[C@@H](CCC(=O)O)C(=O)O; NMeN = CN[C@@H](CC(N)=O)C(=O)O; NMeL = CN[C@@H](CC(C)C)C(=O)O; NMeV = CN[C@H](C(=O)O)C(C)C; β3hP = O=C(O)C[C@@H]1CCCN1; Orn = NCCC[C@H](N)C(=O)O; Dab = NCC[C@H](N)C(=O)O; Dap = NC[C@H](N)C(=O)O; Ahx = NCCCCCC(=O)O; Ava = NCCCCC(=O)O; GABA = NCCCC(=O)O

This is an account of results in patent publication US20240199692A1 (priority 2019, published 2024).

The target in the assay is T1, MMP2 (Homo sapiens, UniProt P08253).
T1 sequence (P08253 110-660): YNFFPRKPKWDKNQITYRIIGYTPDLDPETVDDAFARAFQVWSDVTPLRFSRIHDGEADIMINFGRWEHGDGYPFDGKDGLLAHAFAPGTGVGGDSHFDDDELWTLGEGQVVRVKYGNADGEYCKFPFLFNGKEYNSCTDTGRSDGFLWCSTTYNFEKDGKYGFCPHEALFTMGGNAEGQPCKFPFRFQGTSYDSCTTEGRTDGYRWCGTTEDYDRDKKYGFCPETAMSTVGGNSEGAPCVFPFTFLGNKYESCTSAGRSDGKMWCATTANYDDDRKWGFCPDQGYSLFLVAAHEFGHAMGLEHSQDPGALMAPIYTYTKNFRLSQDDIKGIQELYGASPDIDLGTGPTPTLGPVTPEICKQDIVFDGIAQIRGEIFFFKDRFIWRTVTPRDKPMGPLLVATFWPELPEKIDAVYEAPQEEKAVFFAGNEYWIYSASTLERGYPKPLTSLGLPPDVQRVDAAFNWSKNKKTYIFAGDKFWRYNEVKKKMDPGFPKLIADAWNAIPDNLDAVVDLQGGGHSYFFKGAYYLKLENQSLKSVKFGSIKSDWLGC
Briefly: Inhibitory effects on human MMP2 (Method 1), enzyme assay with MOCAc-Pro-Leu-Gly-Leu-A2pr(Dnp)-Ala-Arg-NH2 substrate, 96-well. Format: biochemical. The procedure:
In a reaction solution [50 mmol/L Tris-HCl (pH 7.5), 150 mmol/L NaCl, 10 mmol/L CaCl2, 0.05% Brij L23], 100 μg/mL human recombinant MMP2 enzyme and 1 mmol/L 4-Aminophenylmercuric acetate were mixed together, and reacted at 37° C. for 60 minutes. The human MMP2 activated through the reaction was poured into a 96-well microplate to reach a final concentration of 0.7 or 7 ng/mL.

[1] abbreviates: Test Example No. 1-1 (Method 1, 96-well microplate), read-out: Human MMP2, IC50.

`CCNC(=O)c1ccc(Oc2ccc(C(=O)NCCCCCC(=O)N[C@@H](CCCCN)C(=O)N[C@@H](CC(=O)O)C(=O)N[C@@H](CCN)C(=O)N[C@@H](CC(C)C)C(=O)N(C)[C@@H](CCC(=O)O)C(=O)N3CCC[C@H]3CC(N)=O)cc2)cc1` [Compound 194] ({Benzoyl(4-(4-EtNHCO-PhO))-Ahx}-KD[Dab]L[NMeE][β3hP]-NH2; N-terminus assumed): under setting [1], the IC50 stood at 3.7 nM.

As to `CSCC[C@H](NC(=O)[C@H](CC(C)C)NC(=O)[C@H](C)NC(=O)[C@H](CC(=O)O)NC(=O)[C@H](CC(N)=O)NC(=O)CCCCNC(=O)c1ccc(Oc2ccc(C(=O)NCC(=O)O)cc2)cc1)C(=O)N1CCC[C@H]1C(N)=O` [Compound 178] ({X19-Ava}-NDALMP-NH2; N-terminus assumed), the IC50 under setting [1] came to 3.6 nM.

On to `CC[C@H](C)[C@@H](C(=O)N1CCC[C@H]1CC(N)=O)N(C)C(=O)[C@H](CC(C)C)NC(=O)[C@H](CCN)NC(=O)C[C@@H](NS(=O)(=O)c1ccc(NC(=O)c2ccc(OC)cc2)cc1)C(=O)O` [Compound 694] ({Phenylsulfonyl(4-anisamido)-d(βAsp)}-[Dab]L[NMeI][β3hP]-NH2; N-terminus assumed), for which the IC50 under setting [1] was 0.094 nM.

`CNC(=O)c1ccc(Oc2ccc(C(=O)NCCCCC(=O)N[C@@H](CCCNC(=N)N)C(=O)N[C@@H](CC(=O)O)C(=O)N[C@@H](CCN)C(=O)N[C@@H](CC(C)C)C(=O)N(C)[C@@H](CCC(=O)O)C(=O)N3CCC[C@H]3CC(N)=O)cc2)cc1` [Compound 188] ({Benzoyl(4-O-C6H4-4-CONHMe)-Ava}-RD[Dab]L[NMeE][β3hP]-NH2; N-terminus assumed): under setting [1], the half-inhibitory concentration (IC50) was 0.81 nM.

For `CC[C@H](C)[C@@H](C(=O)N1CCC[C@H]1C(N)=O)N(C)C(=O)[C@H](CC(C)C)NC(=O)[C@H](C)NC(=O)[C@H](CC(=O)O)NC(=O)[C@H](CC(C)C)N(C)C(=O)CCCNC(=O)c1ccc(Oc2ccccc2)cc1` [Compound 120] ({Benzoyl(4-OPh)-GABA}-[NMeL]DAL[NMeI]P-NH2; N-terminus assumed), the IC50 under setting [1] was determined as 0.21 nM.

For the molecule `CC[C@H](C)[C@@H](C(=O)N1CCC[C@H]1C(N)=O)N(C)C(=O)[C@H](CC(C)C)NC(=O)[C@H](C)NC(=O)[C@H](CC(=O)O)NC(=O)[C@H](Cc1c[nH]c2ccccc12)N(C)C(=O)CCCNC(=O)c1ccc(Oc2ccccc2)cc1` [Compound 130] ({Benzoyl(4-OPh)-GABA}-[NMeW]DAL[NMeI]P-NH2; N-terminus assumed), under setting [1], the IC50 was found to be 0.36 nM.

Consider `CC(C)C[C@H](NC(=O)[C@H](CN)NC(=O)C[C@@H](NS(=O)(=O)c1ccc(-c2ccc(OCCO)cc2)cc1)C(=O)O)C(=O)N(C)[C@@H](CCC(=O)O)C(=O)N1CCC[C@H]1CC(N)=O` [Compound 638] ({X7-d(βAsp)}-[Dap]L[NMeE][β3hP]-NH2; N-terminus assumed), for which, under setting [1], the IC50 was 0.14 nM.

Regarding `CC[C@H](C)[C@@H](C(=O)N1CCC[C@H]1CC(N)=O)N(C)C(=O)[C@H](CC(C)C)NC(=O)[C@H](CCN)NC(=O)C[C@@H](NS(=O)(=O)c1ccc(-c2ccc(CO)cc2)cc1)C(=O)O` [Compound 642] ({X5-d(βAsp)}-[Dab]L[NMeI][β3hP]-NH2; N-terminus assumed), the IC50 under setting [1] turned out to be 1.6 nM.

Take `CC[C@H](C)[C@@H](C(=O)N1CCC[C@H]1C(N)=O)N(C)C(=O)[C@H](CC(C)C)NC(=O)[C@H](CCN)NC(=O)[C@H](CC(=O)O)NC(=O)[C@H](CC(C)C)N(C)C(=O)CCCNC(=O)c1ccc(Oc2ccccc2)cc1` [Compound 136] ({Benzoyl(4-OPh)-GABA}-[NMeL]D[Dab]L[NMeI]P-NH2; N-terminus assumed): the IC50 under setting [1] is 4.7 nM.

In the case of `CC[C@H](C)[C@@H](C(=O)N1CCC[C@H]1CC(N)=O)N(C)C(=O)[C@H](CC(C)C)NC(=O)[C@H](CN)NC(=O)C[C@@H](NS(=O)(=O)c1ccc(NC(=O)c2ccc(OC)cc2)cc1)C(=O)O` [Compound 692, N-[(2S)-3-amino-1-({(2S)-1-[{(2S,3S)-1-[(2S)-2-(2-amino-2-oxoethyl)pyrrolidin-1-yl]-3-methyl-1-oxopentan-2-yl}(methyl)amino]-4-methyl-1-oxopentan-2-yl}amino)-1-oxopropan-2-yl]-N^2-[4-(4-methoxybenzamido)benzene-1-sulfonyl]-D-asparagine] ({Phenylsulfonyl(4-anisamido)-d(βAsp)}-[Dap]L[NMeI][β3hP]-NH2), the IC50 under setting [1] is 0.068 nM.

With `CC[C@H](C)[C@@H](C(=O)N1CCC[C@H]1CC(N)=O)N(C)C(=O)[C@H](CC(C)C)NC(=O)[C@H](CCN)NC(=O)[C@H](CC(=O)O)NC(=O)[C@H](CCCN)NC(=O)CCCNC(=O)c1ccc(Oc2ccccc2)cc1` [Compound 148] ({Benzoyl(4-OPh)-GABA}-[Orn]D[Dab]L[NMeI][β3hP]-NH2; N-terminus assumed), the IC50 under setting [1] came to 0.48 nM.

Consider `CC[C@H](C)[C@@H](C(=O)N1CCC[C@H]1C(N)=O)N(C)C(=O)[C@H](CC(C)C)NC(=O)[C@H](CCN)NC(=O)[C@H](CC(=O)O)NC(=O)[C@H](C(C)C)N(C)C(=O)CCCNC(=O)c1ccc(Oc2ccccc2)cc1` [Compound 135] ({Benzoyl(4-OPh)-GABA}-[NMeV]D[Dab]L[NMeI]P-NH2; N-terminus assumed), for which, under setting [1], the IC50 worked out at 9.3 nM.

For `CC[C@H](C)[C@@H](C(=O)N1CCC[C@H]1CC(N)=O)N(C)C(=O)[C@H](CC(C)C)NC(=O)[C@H](CCN)NC(=O)[C@H](CC(=O)O)NC(=O)[C@H](CCCCN)NC(=O)CCCCNC(=O)c1ccc(Oc2ccc(C(=O)NC)cc2)cc1` [Compound 185] ({Benzoyl(4-O-C6H4-4-CONHMe)-Ava}-KD[Dab]L[NMeI][β3hP]-NH2; N-terminus assumed), the IC50 under setting [1] stood at 1 nM.

Consider `CC[C@H](C)[C@@H](C(=O)N1CCC[C@H]1C(N)=O)N(C)C(=O)[C@H](CC(C)C)NC(=O)[C@H](C)NC(=O)[C@H](CC(=O)O)NC(=O)[C@@H]1CCCN1C(=O)CCCNC(=O)c1ccc(Oc2ccccc2)cc1` [Compound 117] ({Benzoyl(4-OPh)-GABA}-PDAL[NMeI]P-NH2; N-terminus assumed), for which the IC50 under setting [1] was 0.55 nM.

Regarding `CC(C)C[C@H](NC(=O)[C@H](CCN)NC(=O)[C@H](CC(=O)O)NC(=O)[C@@H](NC(=O)CCCNC(=O)c1ccc(Oc2ccccc2)cc1)C(C)C)C(=O)N(C)[C@@H](CCC(=O)O)C(=O)N1CCC[C@H]1CC(N)=O` [Compound 143] ({Benzoyl(4-OPh)-GABA}-VD[Dab]L[NMeE][β3hP]-NH2; N-terminus assumed), the 50% inhibitory concentration (IC50) under setting [1] amounted to 2.6 nM.

In the case of `CCOc1ccc(C(=O)Nc2ccc(S(=O)(=O)N[C@H](CCC(=O)N[C@@H](CCN)C(=O)N[C@@H](CC(C)C)C(=O)N(C)[C@H](C(=O)N3CCC[C@H]3CC(N)=O)[C@@H](C)CC)C(=O)O)cc2)cc1` [Compound 698] ({X2-d(γGlu)}-[Dab]L[NMeI][β3hP]-NH2; N-terminus assumed), under setting [1], the IC50 stood at 0.31 nM.

Consider `CC[C@H](C)[C@@H](C(=O)N1CCC[C@H]1CC(N)=O)N(C)C(=O)[C@H](CC(C)C)NC(=O)[C@H](CCN)NC(=O)[C@H](CC(=O)O)NC(=O)[C@H](CC(N)=O)NC(=O)CCCNC(=O)c1ccc(Oc2ccccc2)cc1` [Compound 106], for which the IC50 was 0.16 nM.

Take `CC[C@H](C)[C@@H](C(=O)N1CCC[C@H]1C(N)=O)N(C)C(=O)[C@H](CC(C)C)NC(=O)[C@H](CCN)NC(=O)[C@H](CC(=O)O)NC(=O)[C@H](CC(N)=O)N(C)C(=O)CCCNC(=O)c1ccc(Oc2ccccc2)cc1` [Compound 111] ({Benzoyl(4-OPh)-GABA}-[NMeN]D[Dab]L[NMeI]P-NH2; N-terminus assumed): under setting [1], the concentration for half-maximal inhibition (IC50) amounted to 0.96 nM.

As usually defined, the IC50 is the concentration that gives 50% inhibition.
